The results in this text go back to patent publication EP2396329B1, “COMPOUNDS FOR THE TREATMENT OF HEPATITIS C” (priority 2009, dated 2010).

What is called IC50 is the midpoint of a concentration-inhibition curve. One may read the EC50 as the concentration at which the effect is half-maximal.

One assay deals with T1, HCV NS5B (Hepatitis C virus genotype 1b, UniProt Q9WMX2).
T1 construct: The protein was expressed with an 18 amino acid C-terminal truncation to enhance the solubility; made in house; host or cells: E. coli BL21(DE3)
T1 sequence (Q9WMX2 2420-2992): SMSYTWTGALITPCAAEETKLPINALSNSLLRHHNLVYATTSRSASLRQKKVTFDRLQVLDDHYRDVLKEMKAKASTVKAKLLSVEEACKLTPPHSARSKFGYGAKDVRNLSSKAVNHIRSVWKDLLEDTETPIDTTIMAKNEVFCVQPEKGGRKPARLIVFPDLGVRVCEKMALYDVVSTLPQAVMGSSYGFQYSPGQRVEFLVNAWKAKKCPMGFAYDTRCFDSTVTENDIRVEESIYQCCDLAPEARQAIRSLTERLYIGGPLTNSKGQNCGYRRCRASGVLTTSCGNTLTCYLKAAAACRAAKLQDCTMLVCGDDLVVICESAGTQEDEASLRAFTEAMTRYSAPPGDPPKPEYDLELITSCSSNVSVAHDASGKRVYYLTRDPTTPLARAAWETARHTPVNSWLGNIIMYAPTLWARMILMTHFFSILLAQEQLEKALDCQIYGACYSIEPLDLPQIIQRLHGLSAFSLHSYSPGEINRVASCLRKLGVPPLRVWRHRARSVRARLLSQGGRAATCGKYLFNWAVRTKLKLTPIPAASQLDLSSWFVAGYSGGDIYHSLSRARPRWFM
Kind of assay: HCV NS5B RdRp enzyme assay (standard or modified). The assay is classed as biochemical. As for the experimental part:
HCV NS5B RdRp cloning, expression, and purification. The cDNA encoding the NS5B protein of HCV, genotype 1b, was cloned into the pET21a expression vector. The protein was expressed with an 18 amino acid C-terminal truncation to enhance the solubility. The E. coli competent cell line BL21(DE3) was used for expression of the protein. Cultures were grown at 37 °C for ~ 4 hours until the cultures reached an optical density of 2.0 at 600 nm. The cultures were cooled to 20 °C and induced with I mM IPTG. Fresh ampicillin was added to a final concentration of 50 µg/ml and the cells were grown overnight at 20 °C.
Cell pellets (3L) were lysed for purification to yield 15-24 mgs of purified NS5B. The lysis buffer consisted of 20 mM Tris-HCl, pH 7.4, 500 mM NaCl, 0.5% triton X-100, 1 mM DTT, 1mM EDTA, 20% glycerol, 0.5 mg/ml lysozyme, 10 mM MgCl2, 15 ug/ml deoxyribonuclease I, and Complete TM protease inhibitor tablets (Roche). After addition of the lysis buffer, frozen cell pellets were resuspended using a tissue homogenizer. To reduce the viscosity of the sample, aliquots of the lysate were sonicated on ice using a microtip attached to a Branson sonicator. The sonicated lysate was centrifuged at 100,000 x g for 1hr at 4 °C and filtered through a 0.2 µm filter unit (Corning).
The protein was purified using three sequential chromatography steps: Heparin sepharose CL-6B, polyU sepharose 4B, and Hitrap SP sepharose (Pharmacia). The chromatography buffers were identical to the lysis buffer but contained no lysozyme, deoxyribonuclease I, MgCl2 or protease inhibitor and the NaCl concentration of the buffer was adjusted according to the requirements for charging the protein onto the column. Each column was eluted with a NaCl gradient which varied in length from 5-50 column volumes depending on the column type. After the final chromatography step, the resulting purity of the enzyme is >90% based on SDS-PAGE analysis. The enzyme was aliquoted and stored at -80 °C.
Standard HCV NS5B RdRp enzyme assay. HCV RdRp genotype 1b assays were run in a final volume of 60 µl in 96 well plates (Costar 3912). The assay buffer is composed of 20 mM Hepes, pH 7.5, 2.5 mM KCI, 2.5 mM MgCl2, 1 mM DTT, 1.6 U RNAse inhibitor (Promega N2515), 0.1 mg/ml BSA (Promega R3961), and 2 % glycerol. All compounds were serially diluted (3-fold) in DMSO and diluted further in water such that the final concentration of DMSO in the assay was 2%. HCV RdRp genotype Ib enzyme was used at a final concentration of 28 nM. A polyA template was used at.6 nM, and a biotinylated oligo-dT12 primer was used at 180 nM final concentration. Template was obtained commercially (Amersham 27-4110). Biotinylated primer was prepared by Sigma Genosys. 3H-UTP was used at 0.6 µCi (0.29 µM total UTP). Reactions were initiated by the addition of enzyme, incubated at 30 °C for 60 min, and stopped by adding 25 µl of 50 mM EDTA containing SPA beads (4 µg/µl, Amersham RPNQ 0007). Plates were read on a Packard Top Count NXT after > 1hr incubation at room temperature.
Modified HCV NS5B RdRp enzyme assay. A modified enzyme assay was performed essentially as described for the standard enzyme assay except for the following: The biotinylated oligo dT12 primer was precaptured on streptavidin-coated SPA beads by mixing primer and beads in assay buffer and incubating at room temperature for one hour. Unbound primer was removed after centrifugation. The primer-bound beads were resuspended in 20 mM Hepes buffer, pH 7.5 and used in the assay at final concentrations of 20 nM primer and 0.67 µg/µl beads. Order of addition in the assay: enzyme (14 nM) was added to diluted compound followed by the addition of a mixture of template (0.2 nM), 3H-UTP (0.6 µCi, 0.29 µM), and primer-bound beads, to initiate the reaction; concentrations given are final. Reactions were allowed to proceed for 4 hours at 30° C.
IC50 values for compounds were determined using seven different [I]. […]

Another assay relates to HCV replicon. Kind of assay: HCV replicon assay (FRET or luciferase readout). The format is cell-based. To be noted: Hepatitis C virus. An excerpt: FRET Assay Preparation. To perform the HCV FRET screening assay, 96-well cell culture plates were used. The FRET peptide (Anaspec, Inc.) (Taliani et al., Anal. Biochem. 1996, 240, 60-67) contains a fluorescence donor, EDANS, near one end of the peptide and an acceptor, DABCYL, near the other end. The fluorescence of the peptide is quenched by […] resonance energy transfer (RET) between the donor and the acceptor, but as the NS3 protease cleaves the peptide the products are released from RET quenching and the fluorescence of the donor becomes apparent. The assay reagent was made as follows: 5X cell Luciferase cell culture lysis reagent from Promega (#E153A) diluted to 1X with dH2O, NaCl added to 150 mM final, the FRET peptide diluted to 20 µM final from a 2 mM stock.
To prepare plates, HCV replicon cells, with or without a Renilla luciferase reporter gene, were trypsinized and placed into each well of a 96-well plate with titrated test compounds added in columns 3 through 12; columns 1 and 2 contained a control compound (HCV protease inhibitor), and the bottom row contained cells without compound. The plates were then placed in a CO2 incubator at 37 °C.
Assays. Subsequent to addition of the test compounds described above (FRET Assay Preparation), at various times the plate was removed and Alamar blue solution (Trek Diagnostics, #00-100) was added per well as a measure of cellular toxicity. After reading in a Cytoflour 4000 instrument (PE Biosystems), plates were rinsed with PBS and then used for FRET assay by the addition of 30 ul of the FRET peptide assay reagent described above (FRET Assay Preparation) per well. The plate was then placed into the Cytoflour 4000 instrument which had been set to 340 excite/490 emission, automatic mode for 20 cycles and the plate read in a kinetic mode. Typically, the signal to noise using an endpoint analysis after the reads was at least three-fold. Alternatively, after Alamar blue reading, plates were rinsed with PBS, 50 ul of DMEM (high glucose) without phenol red was added and plates were then used for luciferase assay using the Promega Dual-Glo Luciferase Assay System.
Compound analysis was determined by quantification of the relative HCV replicon inhibition and the relative cytotoxicity values. To calculate cytoxicity values, the average Alamar Blue fluorescence signals from the control wells were set as 100% non-toxic. The individual signals in each of the compound test wells were then divided by the average control signal and multiplied by 100% to determine […]. To calculate the HCV replicon inhibition values, an average background value was obtained from the two wells containing the highest amount of HCV protease inhibitor at the end of the assay period. These numbers were similar to those obtained from naïve Huh-7 cells.
The background numbers were then subtracted from the average signal obtained from the control wells and this number was used as 100% activity. The individual signals in each of the compound test wells were then divided by the averaged control values after background subtraction and multiplied by 100% to determine percent activity. EC50 values for a protease inhibitor titration were calculated as the concentration which caused a 50% reduction in FRET or luciferase activity. The two numbers generated for the compound plate, percent cytoxicity and percent activity were used to determine compounds of interest for further analysis.
(A replicon is a self-replicating genome or part of one, used to study replication in cells.)

The mark [1] stands for this setting: HCV NS5B RdRp enzyme, genotype 1b, read-out: IC50.
Setting [2] is: HCV replicon cells, FRET or luciferase activity, read-out: EC50.

Like-named read-outs stand apart in the source and are kept apart here.

For `CCn1nc(C)c(C2=Cc3cc(OC)ccc3-c3c(C4CCCCC4)c4ccc(C(=O)NS(=O)(=O)C(C)C)cc4n3C2)c1C(=O)N1C[C@@H](C)O[C@H](C)C1`, the IC50 on HCV NS5B (setting [1]) fell in the range of 1 to 500 nM. Moreover, the EC50 with HCV replicon (setting [2]) fell in the range of 1 to 500 nM.
Regarding `CCn1nc(C)c(C2=Cc3cc(OC)ccc3-c3c(C4CCCCC4)c4ccc(C(=O)NS(=O)(=O)C(C)C)cc4n3C2)c1C(=O)N1CCN(C)CC1`, the IC50 at HCV NS5B (setting [1]) was 1 to 500 nM. In the assay with HCV replicon (setting [2]), the EC50 was 1 to 500 nM.
For the molecule `CCn1nc(C)c(C2=Cc3cc(OC)ccc3-c3c(C4CCCCC4)c4ccc(C(=O)NS(=O)(=O)C(C)C)cc4n3C2)c1C(=O)N1C[C@@H](C)N(C)[C@@H](C)C1`, the IC50 on HCV NS5B (setting [1]) was 1 to 500 nM. Further, in the assay with HCV replicon (setting [2]), the 50% effective concentration (EC50) was 1 to 500 nM.
The molecule `CCn1ncc(C(=O)N2C3CCCC2COC3)c1C1=Cc2cc(OC)ccc2-c2c(C3CCCCC3)c3ccc(C(=O)NS(=O)(=O)C(C)C)cc3n2C1` returned an EC50 in the assay with HCV replicon of 1 to 500 nM.
As for `CCn1ncc(C(=O)N2C[C@@H](C)N(C)[C@@H](C)C2)c1C1=Cc2cc(OC)ccc2-c2c(C3CCCCC3)c3ccc(C(=O)NS(=O)(=O)C(C)C)cc3n2C1`, the IC50 at HCV NS5B (setting [1]) was 1 to 500 nM. Also, in the assay with HCV replicon (setting [2]), the EC50 was in the range of 1 to 500 nM.
Molecule `CCn1ncc(C(=O)N2C3CCC2CN(C)C3)c1C1=Cc2cc(OC)ccc2-c2c(C3CCCCC3)c3ccc(C(=O)NS(=O)(=O)C(C)C)cc3n2C1` showed an IC50 against HCV NS5B of 1 to 500 nM. The same molecule had an EC50 in the assay on HCV replicon of 1 to 500 nM.
Molecule `COc1ccc2c(c1)C=C(c1c(C(=O)N3CC4CCC(C3)O4)cnn1CC(F)(F)F)Cn1c-2c(C2CCCCC2)c2ccc(C(=O)NS(=O)(=O)C(C)C)cc21` displayed an IC50 on HCV NS5B of 1 to 500 nM. In addition, the EC50 with HCV replicon fell in the range of 1 to 500 nM.
`COc1ccc2c(c1)C=C(c1c(C(=O)N3C4COCC3COC4)cnn1CC(F)(F)F)Cn1c-2c(C2CCCCC2)c2ccc(C(=O)NS(=O)(=O)C(C)C)cc21` registered an IC50 against HCV NS5B of 1 to 500 nM. The same molecule displayed an EC50 in the assay on HCV replicon of 1 to 500 nM.
Take `COc1ccc2c(c1)C=C(c1c(C(=O)N3CC4CC3CO4)cnn1CC(F)(F)F)Cn1c-2c(C2CCCCC2)c2ccc(C(=O)NS(=O)(=O)C(C)C)cc21` (stereo not shown): the half-maximal inhibitory concentration (IC50) on HCV NS5B (setting [1]) lay within 1 to 500 nM. Besides, in the assay with HCV replicon, the EC50 was 1 to 500 nM.
Turning to `COc1ccc2c(c1)C=C(c1c(C(=O)N3CCN(C)CC3)cnn1CC(F)(F)F)Cn1c-2c(C2CCCCC2)c2ccc(C(=O)NS(=O)(=O)C(C)C)cc21`, at HCV NS5B (setting [1]), the IC50 was 1 to 500 nM. For the same molecule, the EC50 in the assay on HCV replicon (setting [2]) lay within 1 to 500 nM.
`COc1ccc2c(c1)C=C(c1c(C(=O)N3C4CCCC3COC4)cnn1C(C)C)Cn1c-2c(C2CCCCC2)c2ccc(C(=O)NS(=O)(=O)C(C)C)cc21` returned an IC50 at HCV NS5B of 1 to 500 nM. This molecule gave an EC50 in the assay with HCV replicon of 1 to 500 nM.
In the case of `COc1ccc2c(c1)C=C(c1c(C(=O)N3CC4CCC(C3)O4)c(C)nn1C(C)C)Cn1c-2c(C2CCCCC2)c2ccc(C(=O)NS(=O)(=O)C(C)C)cc21`, in the assay on HCV replicon, the EC50 fell in the range of 1 to 500 nM.
